{"source": "patent US20250345483A1", "about": "“WIDE RANGE SYNTHETIC PEPTIDE NUCLEIC ACIDS AND THEIR APPLICATIONS” (Carilion Clinic, priority 2024, published 2025)", "system": "gentamicin-resistant P. aeruginosa, Pa383-ΔrahU::GM", "test": "Biofilm biomass, aqueous or dried onto 96-well plates", "type": "cell-based, Pseudomonas aeruginosa", "conditions": "32 h incubation", "procedure": "An equimolar (10 μM per antisense-PNA) cocktail of the antisense-PNAs rsmA 0, amrZ 0, and rpoS 0 with 50% methanol (MeOH) (total volume: 60 μL) was dried onto a 96-well clear flat bottom polystyrene tissue culture-treated microplate in a Fisherbrand™ Isotemp™ Digital Dry Bath/Block Heater at 37° C. 60 μL of 100 μg/mL gentamicin was also dried onto wells. Gentamicin-resistant P. aeruginosa, Pa383-ΔrahU::GM was subcultured as described above (Rao, J. et al., 2011)\nBiofilms were stained with 175 μL 0.1% crystal violet (CV), rinsed with sterile water until the water ran clear, solubilized in 100 μL of 33% glacial acetic acid (GAA), and absorbance was measured using a spectrophotometer at 590 nm (Wilson, C. et al., 2017).", "data": [{"substance": "gentamicin", "values": [{"measurement": "average biofilm biomass", "setting": "aq, vs untreated in M9+ media", "value": "no statistically significant difference"}, {"measurement": "average biofilm biomass", "setting": "dried in MeOH, vs dried MeOH control wells", "value": "no statistically significant difference"}]}]}
